Data set [1] concerns DFMO-induced thrombocytopenia. Conditions: rat, in vivo.
Data set [2] has as its system platelet counts / host toxicity. Description: DFMO toxicity, continuous i.v. infusion for 12 days in rats (FIG. 3). Type of data set: in vivo. From the text:
FIG. 3. […] Bars indicate standard deviation.
In the above described rat model, a continuous infusion of DFMO was given through a central venous catheter.

The next data set has as its system MCA sarcoma. Description: DFMO effect on growth of MCA sarcoma. It is filed as in vivo.
The test system of data set [3] is platelet counts / host toxicity. Details: species or system human (patients with advanced colorectal carcinoma). Conditions: human, in vivo. The text has this: FIG. 4. Platelet counts plotted against days of continuous i.v. DFMO infusion in patients with advanced colorectal carcinoma. […] The paired points are connected by a straight line.
There was no incidence of nausea, vomiting or diarrhea.

The subject of the next data set is RBC putrescine levels. Description: RBC putrescine in tumor-bearing and non tumor-bearing rats infused with feeding solutions (Table V). The note with it: vs chow or essential amino acids only.
Data set [4] concerns polyamine levels (erythrocyte and tumor). Description: RBC and tumor polyamine levels in tumor-bearing rats infused with amino acid solutions (Example II, Table IV). Type of data set: in vivo, male Fisher 344 rats. The note with it: infusion alone, not in combination with essential amino acids; experimental tumor system.
Source text: A methylcholanthrene-induced fibrosarcoma (0.17 g) was implanted as a brei into the right flank under anesthesia and the animals were fed a chow diet for 21 days. When the tumors were at least 1.0 cm in width, two-dimensional measurements with calipers were instituted and the equation, length (cm)×(width [cm])^2 ×1/2=grams of tumor tissue, was used to estimate tumor weight. […] The animals were then allowed to recover overnight and continuous infusions were started the next morning. […] Nephramine is a parenteral amino acid solution consisting of eight essential amino acids and histidine. After 6 days of continuous infusion, the animals were sacrificed by aortic bleeding. Liver and tumor were excised and weighed and kept frozen at -70° C. until assays were done. Only viable, nonnecrotic tumor tissue was saved and assayed.
Preparation of tumor tissue for polyamine assay was done in the following manner. Tumor tissue weighing 0.5 to 1.5 g was cut into small pieces and put into a disposable tube (16×100 mm). Ice-cold 4% sulfosalicylic acid was then added at 2 ml/g wet tissue. This mixture was homogenized in an ice bath for 40 seconds using the Brinkman Polytron homogenizer (P10ST generator set at 8.5). The suspension was centrifuged at 100,000 g for 30 minutes and the resulting clear supernatant was analyzed for polyamines on a Durrum D-500 amino acid analyzer.
Data set [5] relates to DFMO-induced thrombocytopenia. Description: Influence of ornithine co-administration on DFMO-induced thrombocytopenia in the rat (Table VI). Conditions: 12 days continuous infusion.

Each structure is given as a SMILES string. “Also recorded” adds a separate entry of the source. Read-outs that look alike come from different tables or passages of the source.

Procedure for RBC putrescine levels: Another experiment which utilized formulations containing amino acid precursors of RBC polyamines, compared the response of tumor-bearing rats (TB) to non tumor-bearing rats (NTB). The study was performed basically in the manner described above with the following indicated differences. […] Chow rats (C) were fed chow with no i.v. infusion.
Where N is the number of rats included in the study, PUT is RBC levels (nm/g/ml, means±SD) of putrescine determined by HPLC.

As to `NCCCC(N)(C(=O)O)C(F)F` (centres unmarked) [DFMO, Difluoromethylornithine], in data set [1], the Platelets is 409 ± 127 × 10^3 /cu. mm and the “platelet suppression / change in platelet count” value was “significant decrease in platelet count as compared with the saline treatment”. Further, the clinical toxicity entry in data set [2] (12 day study) is “no significant clinical toxicity”. Also, the “White cell count and hematocrit changes” value in data set [2] (rat, in vivo) is on record as “not significantly altered”. The tumor regression entry with MCA sarcoma (MCA sarcoma) is on record as “does not produce tumor regression”. Further, in the data set with MCA sarcoma (in vivo), the “growth rate of an MCA sarcoma” value is “reduces the growth rate”. Besides, the “decrease in tumor putrescine levels” value with tumor putrescine levels (DFMO infusion, rat-tumor model) was 90%. Further, the peripheral platelet counts result in the data set with tumor putrescine levels (rat, in vivo) is given as “without suppressing peripheral platelet counts”. Also, in data set [3], the White cell count result is “not affected by either dose”; the “decreased hearing acuity (patients)” value was “two patients”; the hematocrit entry is reported as “Significant suppression of the hematocrit”; the “nausea, vomiting or diarrhea” value is “no incidence”. In data set [3], the platelet suppression result is “platelet suppression is the major limiting host toxicity” and the “platelet suppression, 8 g compared with 6 g dose” value is reported as “significantly greater platelet suppression at the 8 g dose”.
As to `N=C(N)NCCC[C@H](N)C(=O)O` [arginine], the “increase in RBC putrescine levels in NTB rats” value in the data set on RBC putrescine levels is listed as “significantly greater (p<0.05)”. The blood polyamine levels result in data set [4] is on record as “has not produced elevated blood polyamine levels”.
Consider `NCCC[C@H](N)C(=O)O` [ornithine], for which the “platelet suppression / change in platelet count” value in data set [5] is listed as “blocked platelet suppression; also recorded: significant reversal in the platelet suppression”.
